The values that follow are results of earlier work, collected in patent EP2361606A2, “Oral and tooth care and cleaning agents with ethyl lauroyl arginate” (Henkel AG & Co. KGaA, priority 2010, dated 2011).

Where [1] appears, read: in water, 20°C, bound that defines the group of not soluble / soluble zinc salts.
Where [2] appears, read: in water, temperature not given, bound that defines the group of soluble inorganic zinc salts.

Like-named read-outs stand apart in the source and are kept apart here.

As for Zinkacetat, under setting [1], the Löslichkeit is greater than 100 mg/L.
With Zinkacetat-Dihydrat, the Löslichkeit (20°C) was 430 g/I (20°C).
In the case of Zinkbenzoat, the Löslichkeit under setting [1] is greater than 100 mg/L.
Consider Zinkbromid, for which the Löslichkeit reads like this: (25°C) 820 g/I (25°C); under setting [2], greater than 100 mg/L.
For Zinkchlorid, the Löslichkeit was 4320 g/I (25°C) (25°C) and greater than 100 mg/L under setting [2].
For Zinkcitrat, the Löslichkeit under setting [1] was less than 100 mg/L.
In the case of Zinkformiat, the Löslichkeit under setting [1] is reported as greater than 100 mg/L.
As to Zinkgluconat, the Löslichkeit (20°C) was 100 g/I (20°C) and the Löslichkeit under setting [1] is on record as greater than 100 mg/L.
For Zinkhydroxycarbonat, the Löslichkeit result (result in words, 20°C) is “Fast unlöslich (20°C)”.
Turning to Zinkiodid, the Löslichkeit is 4500 g/I (20°C) (20°C) and greater than 100 mg/L under setting [2].
As to Zinklactat, the Löslichkeit under setting [1] is greater than 100 mg/L.
Take Zinknitrat: the Löslichkeit under setting [2] was greater than 100 mg/L.
For Zinknitrat Hexahydrat, the Löslichkeit (20°C) is 1843 g/I (20°C).
For Zinknitrat-Tetrahydrat, the Löslichkeit result (result in words, 20°C) was “Leicht löslich (20°C)”.
Turning to Zinkoleat, the Löslichkeit under setting [1] was less than 100 mg/L.
For Zinkoxalat, under setting [1], the Löslichkeit was less than 100 mg/L.
As to Zinkoxid, the Löslichkeit under setting [1] is less than 100 mg/L and the Löslichkeit entry (result in words, temperature not given) is listed as “Unlöslich”.
As for Zinksalz der p-Toluolsulfonsäure, the Löslichkeit under setting [1] was greater than 100 mg/L.
Zinkstearat: the Löslichkeit runs as follows: (20°C) 0,9 mg/I (20°C); under setting [1], less than 100 mg/L.
For Zinksulfat, under setting [2], the Löslichkeit is recorded as greater than 100 mg/L.
Consider Zinksulfat-Heptahydat, for which the Löslichkeit (20°C) is 960 g/I (20°C).
As to Zinksulfat-Monohydrat, where the note is “20°C”, the Löslichkeit result is “∼350 g/I (20°C)”.
Turning to Zinktartrat, the Löslichkeit under setting [1] was less than 100 mg/L.
For the substance Zinkvalerat, the Löslichkeit under setting [1] was greater than 100 mg/L.
As for Zinnlaureat, the Löslichkeit under setting [1] is less than 100 mg/L.
